Article PMC9126943, “ADAMTS4-specific MR probe to assess aortic aneurysms in vivo using synthetic peptide libraries” (Nature Communications, 2022)
Where “and” joins values, the source holds several entries; their conditions need not be identical. Equal entries are not always repeated. Where a SMILES comes first, the peptide text is derived from it. Bridges are numbered along the chain shown (N, C = ends). The star is where a group is joined. DOTA = O=C(O)CN1CCN(CC(=O)O)CCN(CC(=O)*)CCN(CC(=O)O)CC1

Columns and labels:
[1] = Solubility (statement, no method); format: physicochemical; settings: statement in the discussion
[2] = biological target: T1, ADAMTS4 in the aortic wall of ApoE−/− mice (Mus musculus, UniProt Q8BNJ2); assay: LA-ICP-MS spatial localization of Gd in the aortic wall; format: in vivo; settings: 10 µm cryosections, n = 3 per time point
T1 construct: from tissue
T1 sequence (Q8BNJ2 209-833): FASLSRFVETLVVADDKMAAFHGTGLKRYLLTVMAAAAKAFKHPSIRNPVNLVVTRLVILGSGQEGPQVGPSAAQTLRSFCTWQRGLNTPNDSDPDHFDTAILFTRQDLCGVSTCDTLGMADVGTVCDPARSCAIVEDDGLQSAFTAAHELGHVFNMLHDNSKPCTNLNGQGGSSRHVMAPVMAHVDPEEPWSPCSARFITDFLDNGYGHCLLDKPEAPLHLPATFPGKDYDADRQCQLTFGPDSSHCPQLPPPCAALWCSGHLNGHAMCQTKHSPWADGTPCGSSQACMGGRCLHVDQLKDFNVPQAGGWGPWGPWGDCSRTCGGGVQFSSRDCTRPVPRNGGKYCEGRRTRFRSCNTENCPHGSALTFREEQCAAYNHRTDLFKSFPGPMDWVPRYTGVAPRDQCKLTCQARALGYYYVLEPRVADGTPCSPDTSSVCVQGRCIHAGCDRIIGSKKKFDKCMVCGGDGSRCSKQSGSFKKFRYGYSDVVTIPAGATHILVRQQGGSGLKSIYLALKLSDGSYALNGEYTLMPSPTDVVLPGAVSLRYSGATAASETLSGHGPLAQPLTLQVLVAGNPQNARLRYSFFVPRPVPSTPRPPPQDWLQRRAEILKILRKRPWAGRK
Procedure: Aortic tissues were cut into 10 µm cryosections at −20 °C and mounted on SuperFrost Plus adhesion slides (Thermo Scientific, Waltham, MA, USA). Laser ablation inductively coupled plasma mass spectrometry (LA-ICP-MS) analysis was performed on a commercial LA system (NWR-213, ESI, Bozeman, MT, USA) equipped with a two-volume sample chamber coupled to a sector field ICP-MS (Element XR, Thermo Fisher Scientific, Bremen, Germany) (Supplementary Table 6).
Helium was used as the carrier gas, and argon was added before reaching the torch using a Y-piece (Supplementary Table 7). The ICP-MS was tuned for maximum ion intensity and good signal stability (RSD < 5%), keeping the oxide ratio (ThO/Th) below 1% during the continuous ablation of a microscopic glass slide. Matrix-matched agarose gel standards cast on glass slides were used for drift control and calibration. These standards contain Gd concentrations between 26.6 pg mm^−2 and 600.1 pg mm^−2. Averaged intensities of six line-scans per standard were used for calibration. Data visualization was done in Origin 2022 (OriginLab Corporation, Northampton, MA).

[3] = biological target: T2, ADAMTS4 in the aneurysmal aortic wall of ApoE−/− mice (Mus musculus, UniProt Q8BNJ2); assay: In vivo MRI, cross-sectional study (2 and 4 weeks AngII, sham); settings: for CNR after administration, individual animals: one line per mouse
T2 construct: from tissue
T2 sequence (Q8BNJ2 209-833): T1 sequence (Q8BNJ2 209-833)
Procedure: All procedures and animal maintenance were performed according to the guidelines and regulations of the Federation of Laboratory Animal Science Associations (FELASA) and the local Guidelines and Provisions for Implementation of the Animal Welfare Act. The animal studies were approved by the local authorities (Lageso Berlin.) Mice were obtained from the Research Institute of Experimental Medicine at the Charité Berlin and maintained under barrier conditions, including a dark/light cycle of 12 h, an ambient temperature of 20 °C, and a humidity of 45%. A standard laboratory diet and water were provided ad libitum. For aneurysm induction, male 8-week-old apolipoprotein-E knockout (ApoE^−/−) (B6.129P2-ApoE^tm1Unc/J) mice underwent implantation of osmotic minipumps (Alzet model 2004, Durect Corp). Osmotic minipumps were implanted subcutaneously in the dorsal neck region and continuously delivered angiotensin II (AngII, Merck KGaA, Darmstadt, Germany) (1000 ng/kg/min) for up to 28 days (n = 32). Sham-operated mice (n = 10) served as the control group, receiving saline for 28 days instead of AngII via the osmotic minipumps.
For the cross-sectional study, MR imaging was performed after two and 4 weeks of AngII-infusion (n = 10 per group). […]
MR imaging was performed using a clinical 3 T Siemens system (Biograph, Siemens Healthcare Solutions, Erlangen, Germany). […] Following anesthesia injection, the animals were positioned in a prone position, and body temperature (37 °C) was monitored using an MR-compatible heating system (Model 1025, SA Instruments Inc, Stony Brook, NY) to avoid rapid cooling. […]
Analysis of resulting MR images was performed using OsiriX (version 7.1, OsiriX Foundation, Bernex, Switzerland). […] In order to assess the signal intensities, regions of interest (ROIs) were measured as areas of signal enhancement, which were co-localized with areas of aneurysmal-aortic tissue. For these areas, the CNR was calculated using the following formula: CNR = (Combined vessel-wall and aneurysmal-aortic-tissue-signal − blood-signal)/standard-deviation-signal (noise). […]

SMILES: N=C(N)NCCC[C@@H]1NC(=O)[C@H](CCCNC(=N)N)NC(=O)[C@H](CO)NC(=O)[C@@H](N)CSSC[C@@H](C(=O)N[C@@H](CO)C(=O)NCC(=O)NCC(=O)N[C@@H](CO)C(=O)NCC(=O)NCC(=O)N[C@@H](CCCCNC(=O)CN2CCN(CC(=O)O)CCN(CC(=O)O)CCN(CC(=O)O)CC2)C(=O)NCC(N)=O)NC(=O)CNC1=O (Gd complex, metal not drawn) [ADAMTS4-specific probe] (H-CSRRGCSGGSGGK(DOTA)G-NH2; disulfide 1-6)
- solubility [1]: high solubility
- colocalization of gadolinium with areas positive for ADAMTS4 [2]: strong colocalization
- CNR after administration, individual animals ([3]; 4 weeks AngII (4w)): 13.92 and 11.1 and 12.72 and 12.01 and 12.59 and 22.52 and 20.4 and 10.53 and 14.06 and 16.11
- CNR of the mice analysed by ICP-MS (Figure 7a) ([3]; individual mice, n = 7): 9.44 and 11.51 and 11.44 and 12.92 and 6.96 and 7.76 and 7.00
- CNR after administration, individual animals ([3]; sham (s)): 6.04 and 7.8 and 7.62 and 6.96 and 7.76 and 7 and 7.77 and 7.23 and 7.52
